Source: PubChem BioAssay AID2060623 (Molecular Pharmacology Branch, DTP, NCI, 2025)

Tested on: 227483-062-R1-J1-PDC complex spheroids with HUVEC/MSC, viability
Assay: Anticancer human tumor 227483-062-R1-J1-PDC patient-derived pancreatic carcinoma cell line growth inhibition [CLK]
Conditions: for IC50: curve of first compound; for viability, T/C: stronger effect = lower value; active = viability on the fitted dose curve at most 10% of control; inactive = the rest
Outline: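 Multi-cell-type spheroids combined patient-derived tumor cells with HUVEC endothelial cells and human mesenchymal stem cells. Paired agents were dosed in half-log steps down from about clinical Cmax, or from 10 microM where Cmax was unknown.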

[1] = second compound 0.0316 µM, first compound 0.0316 µM
[2] = second compound 0.0316 µM, first compound 0.1 µM
[3] = second compound 0.0316 µM, first compound 0.316 µM
[4] = second compound 0.0316 µM, first compound 1 µM
[5] = second compound 0.0316 µM, first compound 3.16 µM
[6] = second compound 0.0316 µM, first compound 10 µM
[7] = second compound 0.1 µM, first compound 0.0316 µM
[8] = second compound 0.1 µM, first compound 0.1 µM
[9] = second compound 0.1 µM, first compound 0.316 µM
[10] = second compound 0.1 µM, first compound 1 µM
[11] = second compound 0.1 µM, first compound 3.16 µM
[12] = second compound 0.1 µM, first compound 10 µM
[13] = second compound 0.316 µM, first compound 0.0316 µM
[14] = second compound 0.316 µM, first compound 0.1 µM
[15] = second compound 0.316 µM, first compound 0.316 µM
[16] = second compound 0.316 µM, first compound 1 µM
[17] = second compound 0.316 µM, first compound 3.16 µM
[18] = second compound 0.316 µM, first compound 10 µM
[19] = second compound 1 µM, first compound 0.0316 µM
[20] = second compound 1 µM, first compound 0.1 µM
[21] = second compound 1 µM, first compound 0.316 µM
[22] = second compound 1 µM, first compound 1 µM
[23] = second compound 1 µM, first compound 3.16 µM
[24] = second compound 1 µM, first compound 10 µM
[25] = second compound 3.16 µM, first compound 0.0316 µM
[26] = second compound 3.16 µM, first compound 0.1 µM
[27] = second compound 3.16 µM, first compound 0.316 µM
[28] = second compound 3.16 µM, first compound 1 µM
[29] = second compound 3.16 µM, first compound 3.16 µM
[30] = second compound 3.16 µM, first compound 10 µM
[31] = second compound 10 µM, first compound 0.0316 µM
[32] = second compound 10 µM, first compound 0.1 µM
[33] = second compound 10 µM, first compound 0.316 µM
[34] = second compound 10 µM, first compound 1 µM
[35] = second compound 10 µM, first compound 3.16 µM
[36] = second compound 10 µM, first compound 10 µM
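Note: spheroids exposed to compounds for seven days before readout.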
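Throughout, for viability, T/C: percent of DMSO vehicle control luminescence as 100% viability.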

CC(C)CC(NC(=O)C(Cc1ccccc1)NC(=O)c1cnccn1)B(O)O (stereo unspecified) + CN1CCN(c2cc(C(=O)Nc3cc4cc(-c5cnn(C)c5)ccc4cn3)ccn2)CC1
1.54 nM: IC50 (second compound 0.0316 µM)
< 0.949 nM: IC50 (second compound 0.316 µM) | IC50 (second compound 1 µM) | IC50 (second compound 3.16 µM) | IC50 (second compound 10 µM)
active: viability, T/C (second compound 0.0316 µM, first compound 0.003 µM) 2.58% | viability, T/C (second compound 0.0316 µM, first compound 0.00949 µM) 0.65% | viability, T/C (second compound 0.0316 µM, first compound 0.03 µM) 1.12% | viability, T/C (second compound 0.0316 µM, first compound 0.0949 µM) 0.45% | viability, T/C (second compound 0.0316 µM, first compound 0.3 µM) 0.74% | viability, T/C (second compound 0.1 µM, first compound 0.003 µM) 2.83% | viability, T/C (second compound 0.1 µM, first compound 0.00949 µM) 1.48% | viability, T/C (second compound 0.1 µM, first compound 0.03 µM) 5.65% | viability, T/C (second compound 0.1 µM, first compound 0.0949 µM) 0.4% | viability, T/C (second compound 0.1 µM, first compound 0.3 µM) 0.25% | viability, T/C (second compound 0.316 µM, first compound 0.000949 µM) 2.47% | viability, T/C (second compound 0.316 µM, first compound 0.003 µM) 3.26% | viability, T/C (second compound 0.316 µM, first compound 0.00949 µM) 0.59% | viability, T/C (second compound 0.316 µM, first compound 0.03 µM) 0.21% | viability, T/C (second compound 0.316 µM, first compound 0.0949 µM) 0.29% | viability, T/C (second compound 0.316 µM, first compound 0.3 µM) 0.75% | viability, T/C (second compound 1 µM, first compound 0.000949 µM) 3.27% | viability, T/C (second compound 1 µM, first compound 0.003 µM) 1.6% | viability, T/C (second compound 1 µM, first compound 0.00949 µM) 0.47% | viability, T/C (second compound 1 µM, first compound 0.03 µM) 2.61% | viability, T/C (second compound 1 µM, first compound 0.0949 µM) 0.34% | viability, T/C (second compound 1 µM, first compound 0.3 µM) 0.4% | viability, T/C (second compound 3.16 µM, first compound 0.000949 µM) 5.84% | viability, T/C (second compound 3.16 µM, first compound 0.003 µM) 2.27% | viability, T/C (second compound 3.16 µM, first compound 0.00949 µM) 1.43% | viability, T/C (second compound 3.16 µM, first compound 0.03 µM) 0.39% | viability, T/C (second compound 3.16 µM, first compound 0.0949 µM) 0.63% | viability, T/C (second compound 3.16 µM, first compound 0.3 µM) 1.73% | viability, T/C (second compound 10 µM, first compound 0.000949 µM) 3.7% | viability, T/C (second compound 10 µM, first compound 0.003 µM) 1.18% | viability, T/C (second compound 10 µM, first compound 0.00949 µM) 0.37% | viability, T/C (second compound 10 µM, first compound 0.03 µM) 1% | viability, T/C (second compound 10 µM, first compound 0.0949 µM) 0.3% | viability, T/C (second compound 10 µM, first compound 0.3 µM) 0.21%
inactive: viability, T/C (second compound 0.0316 µM, first compound 0.000949 µM) 84.2% | viability, T/C (second compound 0.1 µM, first compound 0.000949 µM) 53.2%
1.02 nM: IC50 (second compound 0.1 µM)

CC1COCCN1c1cc(C2(S(C)(=N)=O)CC2)nc(-c2ccnc3[nH]ccc23)n1 (stereo unspecified) + CN1CCN(c2cc(C(=O)Nc3cc4cc(-c5cnn(C)c5)ccc4cn3)ccn2)CC1
inactive: viability, T/C [1] 82.8% | viability, T/C [2] 98.1% | viability, T/C [3] 93.7% | viability, T/C [4] 84.6% | viability, T/C [5] 85.3% | viability, T/C [6] 45.8% | viability, T/C [7] 60.5% | viability, T/C [8] 74.2% | viability, T/C [9] 60.2% | viability, T/C [10] 51.9% | viability, T/C [11] 33.3% | viability, T/C [12] 21.7%
1120 nM: IC50 (second compound 0.1 µM)
active: viability, T/C [13] 6.08% | viability, T/C [14] 4.49% | viability, T/C [15] 4.56% | viability, T/C [16] 4.4% | viability, T/C [17] 6.8% | viability, T/C [18] 2.88% | viability, T/C [19] 1.88% | viability, T/C [20] 2.55% | viability, T/C [21] 1.66% | viability, T/C [22] 3.91% | viability, T/C [23] 2.05% | viability, T/C [24] 1.59% | viability, T/C [25] 4.44% | viability, T/C [26] 3.71% | viability, T/C [27] 4.61% | viability, T/C [28] 3.67% | viability, T/C [29] 2.93% | viability, T/C [30] 2.93% | viability, T/C [31] 3.62% | viability, T/C [32] 2.17% | viability, T/C [33] 2.15% | viability, T/C [34] 1.98% | viability, T/C [35] 2.16% | viability, T/C [36] 3.07%
< 31.6 nM: IC50 (second compound 0.316 µM) | IC50 (second compound 1 µM) | IC50 (second compound 3.16 µM) | IC50 (second compound 10 µM)
8890 nM: IC50 (second compound 0.0316 µM)

O=C(c1cc(Cc2n[nH]c(=O)c3ccccc23)ccc1F)N1CCN(C(=O)C2CC2)CC1 + CN1CCN(c2cc(C(=O)Nc3cc4cc(-c5cnn(C)c5)ccc4cn3)ccn2)CC1
inactive: viability, T/C [1] 94.6% | viability, T/C [2] 105% | viability, T/C [3] 129% | viability, T/C [4] 100% | viability, T/C [5] 121% | viability, T/C [6] 99.7% | viability, T/C [7] 54.3% | viability, T/C [8] 87.4% | viability, T/C [9] 60.1% | viability, T/C [10] 81.2% | viability, T/C [11] 84.4% | viability, T/C [12] 78.9%
< 31.6 nM: IC50 (second compound 0.316 µM) | IC50 (second compound 1 µM) | IC50 (second compound 3.16 µM) | IC50 (second compound 10 µM)
active: viability, T/C [13] 6.03% | viability, T/C [14] 6.34% | viability, T/C [15] 4.67% | viability, T/C [16] 4.91% | viability, T/C [17] 5.89% | viability, T/C [18] 5.77% | viability, T/C [19] 2.77% | viability, T/C [20] 1.94% | viability, T/C [21] 1.82% | viability, T/C [22] 2.7% | viability, T/C [23] 2.26% | viability, T/C [24] 1.69% | viability, T/C [25] 7.27% | viability, T/C [26] 3.78% | viability, T/C [27] 4.39% | viability, T/C [28] 2.51% | viability, T/C [29] 4.57% | viability, T/C [30] 3.8% | viability, T/C [31] 4.72% | viability, T/C [32] 2.86% | viability, T/C [33] 2.33% | viability, T/C [34] 2.8% | viability, T/C [35] 2.43% | viability, T/C [36] 2.26%
> 10000 nM: IC50 (second compound 0.0316 µM) | IC50 (second compound 0.1 µM)
